Measured values published in paper PMC9968125, “Secondary Metabolites with Anti-Inflammatory Activity from Laurencia majuscula Collected in the Red Sea” (Marine Drugs, 2023).
Entries after “also recorded” stand apart in the source; their conditions may differ. Like-named read-outs stand apart in the source and are kept apart here.

Legend:
[1] = tested on: nitric oxide (NO) production in LPS-activated RAW 264.7 macrophages; assay: Suppression of NO release (Griess reaction) in LPS/TLR4-activated RAW 264.7 macrophages; type: cell-based, mouse; details: for IC50: 1 h pre-treatment, LPS 100 ng/mL, Griess reaction at 48 h, read-out: Inhibition of NO Production (IC50)
Protocol: The anti-inflammatory activity of metabolites 1, 2, 4–8, 10, 12–16, 18 and 20–22 was evaluated using the RAW 264.7 macrophage cell line, which has been proven to be a powerful tool for the detection of bioactivity of natural products. The bioactivity of compounds 3, 9, 11, 17 and 19 was not evaluated since they were either proven unstable or isolated in insufficient amounts. RAW 264.7 macrophages were stimulated with the TLR4 ligand LPS, which triggers a pro-inflammatory signal that induces nitric oxide (NO) production, and […] with increasing concentrations of the tested metabolites. The detection of NO was achieved using Griess reaction 48 h following cell activation and was used to determine the IC50 values. Inhibition of NO production was determined by comparing metabolite-treated cells with cells exposed to the vehicle solvent only (0.1% v/v Carbowax^TM 400 and 0.01% v/v ethanol). […] Mouse macrophage RAW 264.7 cell line was cultured in DMEM medium (cat. # 21885-025, Gibco) supplemented with 10% v/v heat-inactivated fetal bovine serum (cat. # 10270-106, Gibco) and 1% v/v penicillin-streptomycin (cat. # 15070-063, Gibco). Cells were grown in stable conditions, 37 °C and 5% CO2, in a CO2 cell culture sterile incubator. In compound treatments, each compound tested was diluted in Carbowax^TM 400 + 10% abs. ethanol (E/0650DF/17, Fisher chemical), serving also as the control solvent. The final concentration of ethanol in cell culture was 0.01% v/v and of Carbowax^TM 400 0.1% v/v independently of the compound dilution prepared. Macrophage activation was performed using 100 ng/mL LPS (L2630, Sigma) and, in the case of compound-treated cells, macrophages were pre-treated for 1 h with the respective compounds before LPS stimulation. 30 × 10^4 RAW 264.7 mouse macrophages per sample were cultured overnight in 24-well plates. The following day, cells were pre-treated for 1 h with the respective compound concentration and then activated using LPS (100 ng/mL) for 48 h. The amount of nitrite, an oxidative product of NO, released in each culture supernatant was measured using Griess reaction. Accordingly, 50 µL of sulfanilamide solution (1% sulfanilamide in 5% H3PO4) was added to 50 µL of cell culture supernatant and the mix was incubated for 5 min at room temperature. Then, 50 µL of NED solution (0.1% N-1-napthylethylenediamine dihydrochlorite in H2O) was added and the absorbance was measured at 540 nm using an automated microplate reader (Infinite 200 PRO, Tecan). All incubations were performed in the dark and the nitrite concentration was estimated using a sodium nitrite standard curve.

[2] = tested on: RAW 264.7 cells; assay: MTT assay, cytostatic activity on RAW 264.7 cells; type: cell-based, mouse; details: for Cytostatic Activity: RAW 264.7, at 72 h, n.a. = no cytostatic activity observed at the concentrations tested; for cytostatic activity above the stated concentration: RAW 264.7, 24, 48 and 72 h
Protocol: In order to verify that the anti-inflammatory activity observed was not due to a potential cytostatic effect of the metabolites, an MTT assay was performed in cells exposed to increasing concentrations of metabolites 1, 2, 4–8, 10, 12–16, 18 and 20–22 for 24, 48 and 72 h (Table 3, Figure 5). The time point that the cytostatic activity was observed reflected its potency since cytotoxicity is a cumulative process.
Mouse macrophage RAW 264.7 cell line was cultured in DMEM medium (cat. # 21885-025, Gibco) supplemented with 10% v/v heat-inactivated fetal bovine serum (cat. # 10270-106, Gibco) and 1% v/v penicillin-streptomycin (cat. # 15070-063, Gibco). Cells were grown in stable conditions, 37 °C and 5% CO2, in a CO2 cell culture sterile incubator. In compound treatments, each compound tested was diluted in Carbowax^TM 400 + 10% abs. ethanol (E/0650DF/17, Fisher chemical), serving also as the control solvent. The final concentration of ethanol in cell culture was 0.01% v/v and of Carbowax^TM 400 0.1% v/v independently of the compound dilution prepared. Macrophage activation was performed using 100 ng/mL LPS (L2630, Sigma) and, in the case of compound-treated cells, macrophages were pre-treated for 1 h with the respective compounds before LPS stimulation.
5 × 10^3 RAW 264.7 mouse macrophages per sample were seeded in 96-well plates (one plate per measurement) and cultured overnight. Cells were treated with the respective compound concentration and incubated for 24, 48 or 72 h. The number of cells was measured prior to treatment and used as normalization control. Thiazolyl Blue Tetrazolium Bromide (MTT) (A2231.001, Applichem) was added to the cells in a final concentration of 500 µg/mL and then cells were incubated at 37 °C plus 5% CO2 for 4 h. The supernatant was removed, and cells were lysed in a mix of 100 μL of isopropanol with 0.4% HCl. The absorbance of each sample was measured using an automated microplate reader (Infinite 200 PRO, Tecan) at 600 nm. The average OD of each treated sample was normalized to the OD of the control sample.

[3] = Chemical stability of the isolated compound upon standing; type: physicochemical; details: upon standing after isolation
[4] = Mus musculus, RAW264.7, RAW 264.7 macrophages

| SMILES | IC50 [1, 4] | Cytostatic Activity [2] | cytostatic activity above the stated concentration [2] | stability of the isolated compound, in words [3] | IC50 ([1]; RAW 264.7 macrophages) | concentration at which significant NO reduction was observed ([1]; LPS-activated RAW 264.7, activity only at this concentration) |
| --- | --- | --- | --- | --- | --- | --- |
| C#C/C=C\CC(Br)[C@@H]1C[C@@H](OC(C)=O)[C@H](CCCCC)O1 (relative stereo) [Compound 5, (3Z,7S*,9R*,10S*)-9-acetoxy-6-bromo-7,10-epoxypentadec-3-en-1-yne] | 3.69 µM | > 50 µM | – | – | – | – |
| C[C@@]12O[C@]1(C)CC[C@@]2(C)c1ccc(CO)cc1 (relative stereo) [Compound 10, (1S*,2S*,3R*)-2,3-epoxy-15-hydroxydihydroisolaurene] | 20.5 µM | > 50 µM | above 50 μM | – | – | – |
| Cc1ccc([C@]2(C)CC[C@@]3(C)O[C@]32C)cc1 (relative stereo) [Compound 11, (1S*,2S*,3R*)-2,3-epoxydihydroisolaurene] | – | – | – | quite unstable | – | – |
| CC1=C(C)[C@](C)(c2ccc(CBr)cc2)CC1 (single isomer, unassigned) [Compound 8, 15-bromoisolaurene] | 6.92 µM | > 25 µM | above 25 μM | – | – | – |
| CC(=O)CC[C@](C)(C(C)=O)c1ccc(CO)cc1 (single isomer, unassigned) [Compound 14, 2,3-dioxo-15-hydroxy-seco-laurene] | 22.7 µM | > 25 µM | above 25 μM | – | – | – |
| CC1=C(C)[C@](C)(c2ccc(C)cc2)CC1=O (stereo in doubt) [Compound 7, 4-oxoisolaurene] | 25.3 µM | > 25 µM | above 25 μM | – | – | – |
| C#CC=CC(Cl)C1C2CC3OC(OC)(C(Br)CC)C1C3O2 (centres unmarked) [Compound 1, Maneonene F] | 10.2 µM | – | did not exhibit any cytostatic activity; also recorded: did not show any cytostatic effect | – | – | – |
| C#CC=CC(Cl)C1C2CC3OC(OC)(C(Br)CC)C1C3O2 (centres unmarked) [Compound 2, Maneonene G] | – | > 25 µM | above 25 μM | – | 12.7 µM | – |
| C#CC=CC(Cl)C1C2CC3OC(OC)(C(Br)CC)C1C3O2 (centres unmarked) [Compound 3, Maneonene H] | – | – | – | unstable | – | – |
| C#C/C=C\[C@@H](Cl)[C@H]1[C@@H]2/C(=C(/Br)CC)O[C@@H]3C[C@H]1O[C@H]23 [Compound 4, cis-maneonene D] | 8.91 µM | – | did not exhibit any cytostatic activity; also recorded: no significant cytostatic activity | – | – | – |
| CC1=C(C)[C@](C)(c2ccc(C)cc2)CC1 [Compound 6, isolaurene] | > 62.5 µM | > 50 µM | – | – | – | 62.5 µM |
| C=C1[C@](C)(O)CC[C@@]1(C)c1ccc(CO)cc1 [Compound 12, laur-2-ene-3,12-diol] | 45.2 µM | > 50 µM | above 50 μM | – | – | – |
| CC1(C)[C@H](O)CC[C@@]1(C)c1ccc(CO)cc1 [Compound 13, cuparene-3,12-diol] | 23.8 µM | > 50 µM | above 50 μM | – | – | – |
| C=CC(C)(O)CC[C@@H]1C(=C)CC[C@H](Br)C1(C)C (stereo partly drawn) [Compound 15, β-snyderol] | 33.1 µM | > 25 µM | above 25 μM | – | – | – |
| CC1=CC[C@@H](Br)C(C)(C)[C@]12CC[C@](C)(Cl)[C@@H](Br)C2 [Compound 16, 2,10-dibromo-3-chloro-a-chamigrene] | 4.97 µM | > 25 µM | above 25 μM | – | – | – |
| CC1=CC[C@H](C)[C@](C)(O)[C@@]12CC[C@@](C)(Cl)[C@H](Br)C2 [Compound 18, compositacin A] | 3.55 µM | – | – | – | – | – |
| CC1CCC(O)C2=CCC3C(C3(C)C)C21C (stereo not drawn) [Compound 20, aristol-9-en-1α-ol] | 10.5 µM | > 50 µM | above 50 μM | – | – | – |
| C=C1CCC(Br)C(C)(C)C12CCC1(C)C(Br)CCC(C)(O)C1C2 (centres unmarked) [Compound 21, kahukuene B] | 6.66 µM | > 25 µM | – | – | – | – |
| CCCCCCCCCCCC/C=C(\Cl)C=O [Compound 22, (2Z)-2-chloro-pentadec-2-enal] | 13.2 µM | > 3.12 µM | > 3.125 µM | – | – | – |
